The values below come from patent publication US11365195B2, “Atypical inhibitors of monoamine transporters; method of making; and use thereof” (THE UNITED STATES OF AMERICA, AS REPRESENTED BY THE …, priority 2017, dated 2022).

Like-named read-outs stand apart in the source and are kept apart here.

One data set deals with T1, σ1R (Cavia porcellus, UniProt Q60492).
T1 construct: tissue BioReclamation IVT (Hicksville, N.Y.); host or cells: male Hartley guinea pig brain cortex membranes
The data set can be described thus: σ1R radioligand binding in guinea pig cortex ([3H]-(+)-Pentazocine competition). To be noted: for σ1/DAT: ratio of σ1 to DAT affinity values; for σ1/SERT: ratio of σ1 to SERT affinity values. How it is done: (§1) Binding affinities of the analogue compounds were evaluated at the DAT and SERT in rat brain membranes, and sigma-1 in guinea pig brain membranes according to the following protocols.
σ1R Radioligand Binding in Guinea Pig Cortex
Male Hartley guinea pig cortices were dissected from freshly harvested brains (shipped cold in PBS buffer from BioReclamation IVT (Hicksville, N.Y.)) and frozen at −80° C. for future use. […] The supernatant was collected in a clean tube and the pellet re-suspended in 10 ml of cold buffer and centrifuged again (˜1,200 rpm) for 10 min at 4° C. […] The final pellet was suspended in ice-cold binding buffer at 50 mg/ml concentration. […] All test compounds were freshly dissolved in 30% DMSO and 70% H2O to a stock concentration of 1 mM or 100 μM. When necessary, to assist the solubilization of compounds, 10 μl of glacial acetic acid was added along with the DMSO (in place of 10 μl final H2O volume). Each test compound was then diluted into 10 half-log serial dilutions using 30% DMSO as the vehicle. […] Nonspecific binding was determined using either 10 μM PRE084 or 10 μM (+)-Pentazocine and total binding was determined with 30% DMSO vehicle (3% DMSO final concentration). […] The filters were washed 3 times with 3 ml (3×1 ml/well) of ice cold binding buffer.

The next data set has as its target T2, DAT (Rattus norvegicus, UniProt P23977).
T2 construct: 100 μl of tissue preparation (1.5 mg of brain striatum membranes per well); tissue Bioreclamation IVT (Hicksville, N.Y.); host or cells: male Sprague-Dawley rat brain striatum membranes
The experiment in a line: DAT radioligand binding in rat striatum ([3H]-WIN35,428 competition). To be noted: for SERT/DAT: ratio of SERT Ki to DAT Ki. How it is done: as §1
DAT Radioligand Binding in Rat Striatum
The tissue was centrifuged at 20,000 rpm for 10 min at 4° C. The pellet was suspended in cold buffer and centrifuged again using the same settings. The resulting pellet was resuspended in cold buffer at a concentration of 15 mg/mL OWW (original wet weight). On test day, all test compounds were freshly dissolved in 30% DMSO and 70% H2O to a stock concentration of 1 mM or 100 μM When necessary, to assist the solubilization of compounds, 10 μl of glacial acetic acid was added along with the DMSO (in place of 10 μl final H2O volume). Each test compound was then diluted into 10 half-log serial dilutions using 30% DMSO vehicle. […] Non-specific binding was determined using […] Indatraline and total binding was determined with 30% DMSO vehicle. The reaction was started with the addition of the tissue. […] The filters were washed 3 times with 3 mL (3×1 mL/well) of ice cold binding buffer. […] These analyses were performed using GraphPad Prism version 6.00 for Macintosh (GraphPad Software, San Diego, Calif.).

The target of another data set is T3, SERT (Rattus norvegicus, UniProt P31652).
T3 construct: 100 μl of tissue preparation (2 mg of brain stem membranes per well); tissue Bioreclamation IVT (Hicksville, N.Y.); host or cells: male Sprague-Dawley rat brain stem membranes
T3 sequence (P31652 whole entry): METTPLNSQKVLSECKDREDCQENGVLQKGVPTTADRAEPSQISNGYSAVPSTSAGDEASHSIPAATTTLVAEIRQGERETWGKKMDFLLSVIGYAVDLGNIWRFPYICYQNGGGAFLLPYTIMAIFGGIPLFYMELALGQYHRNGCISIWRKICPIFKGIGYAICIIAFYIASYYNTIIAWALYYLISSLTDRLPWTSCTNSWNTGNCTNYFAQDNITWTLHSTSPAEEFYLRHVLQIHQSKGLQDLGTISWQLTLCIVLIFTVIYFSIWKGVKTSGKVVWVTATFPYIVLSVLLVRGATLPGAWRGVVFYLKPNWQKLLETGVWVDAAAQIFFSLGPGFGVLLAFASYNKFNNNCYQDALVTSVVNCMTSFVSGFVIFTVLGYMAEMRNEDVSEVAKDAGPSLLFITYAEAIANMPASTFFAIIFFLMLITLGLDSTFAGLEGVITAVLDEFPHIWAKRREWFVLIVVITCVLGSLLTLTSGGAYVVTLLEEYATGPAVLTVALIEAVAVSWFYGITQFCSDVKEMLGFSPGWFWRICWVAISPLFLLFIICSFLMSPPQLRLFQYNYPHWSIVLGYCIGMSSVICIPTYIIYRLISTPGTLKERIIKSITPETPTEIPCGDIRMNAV
The data set can be described thus: SERT radioligand binding in rat midbrain ([3H]-Citalopram competition). To be noted: rat midbrain/brain stem membranes, [3H]-Citalopram, mean ± SEM; read-out: SERT (rat mid-brain-stem) Ki ± SEM. On the procedure: as §1
SERT Radioligand Binding in Rat Midbrain
The tissue was centrifuged at 20,000 rpm for 10 min at 4° C. The pellet was suspended in cold buffer and centrifuged again using the same settings. The resulting pellet was resuspended in cold buffer at a concentration of 20 mg/mL OWW (original wet weight). On test day, all test compounds were freshly dissolved in 30% DMSO and 70% H2O to a stock concentration of 1 mM or 100 μM. When necessary, to assist the solubilization of compounds, 10 μl of glacial acetic acid was added along with the DMSO (in place of 10 μl final H2O volume). Each test compound was then diluted into 10 half-log serial dilutions using 30% DMSO vehicle. […] Non-specific binding was determined using […] Fluoxetine HCl and total binding was determined with 30% DMSO vehicle. The reaction was started with the addition of the tissue. All compound dilutions were tested in triplicate and the reaction incubated for 60 min at room temperature. The reaction was terminated by filtration through Perkin Elmer Uni-Filter-96 GF/B, presoaked for 60 min in 0.3% polyethylenimine, using a Brandel 96-Well Plates Harvester Manifold (Brandel Instruments, Gaithersburg, Md.). The filters were washed 3 times with 3 mL (3×1 mL/well) of ice cold binding buffer. […] These analyses were performed using GraphPad Prism version 6.00 for Macintosh (GraphPad Software, San Diego, Calif.).

The nature of data set [1]: Phase I metabolic stability in rat liver microsomes. To be noted: for Phase I in Liver Microsomes, Negative Control: rat liver microsomes lacking NADPH; for Phase I in Liver Microsomes, Rat: with NADPH, 10 μM compound, 0.5 mg/mL microsomes. The format is in vitro ADME. How it is done: Methods: Phase I metabolic stability assays were conducted in rat liver microsomes. For phase I metabolism, the reactions were carried out with 100 mM potassium phosphate buffer, pH 7.4, in the presence of NADPH regenerating system (1.3 mM NADPH, 3.3 mM glucose 6-phosphate, 3.3 mM MgCl2, 0.4 U/mL glucose-6-phosphate dehydrogenase, […] sodium citrate). Reactions in triplicate were initiated by addition of the liver microsomes to the incubation mixture (compound final concentration was 10 μM; 0.5 mg/mL microsomes). Compound disappearance was monitored via LC/MS/MS. […] The total run time for each analyte was 5.0 min.
(Liver microsomes are vesicles of endoplasmic reticulum, rich in cytochrome P450 enzymes.)

[2] abbreviates: rat striatum membranes, [3H]-WIN35,428, mean ± SEM, read-out: DAT (rat striatum) Ki ± SEM.

T1 sequence (Q60492 whole entry): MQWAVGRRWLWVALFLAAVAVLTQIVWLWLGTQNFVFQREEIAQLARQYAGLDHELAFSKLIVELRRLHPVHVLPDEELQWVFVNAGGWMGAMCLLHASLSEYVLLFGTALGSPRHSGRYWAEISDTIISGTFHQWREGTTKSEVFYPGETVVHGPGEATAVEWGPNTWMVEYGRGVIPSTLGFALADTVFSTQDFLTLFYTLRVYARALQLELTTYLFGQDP
T2 sequence (P23977 whole entry): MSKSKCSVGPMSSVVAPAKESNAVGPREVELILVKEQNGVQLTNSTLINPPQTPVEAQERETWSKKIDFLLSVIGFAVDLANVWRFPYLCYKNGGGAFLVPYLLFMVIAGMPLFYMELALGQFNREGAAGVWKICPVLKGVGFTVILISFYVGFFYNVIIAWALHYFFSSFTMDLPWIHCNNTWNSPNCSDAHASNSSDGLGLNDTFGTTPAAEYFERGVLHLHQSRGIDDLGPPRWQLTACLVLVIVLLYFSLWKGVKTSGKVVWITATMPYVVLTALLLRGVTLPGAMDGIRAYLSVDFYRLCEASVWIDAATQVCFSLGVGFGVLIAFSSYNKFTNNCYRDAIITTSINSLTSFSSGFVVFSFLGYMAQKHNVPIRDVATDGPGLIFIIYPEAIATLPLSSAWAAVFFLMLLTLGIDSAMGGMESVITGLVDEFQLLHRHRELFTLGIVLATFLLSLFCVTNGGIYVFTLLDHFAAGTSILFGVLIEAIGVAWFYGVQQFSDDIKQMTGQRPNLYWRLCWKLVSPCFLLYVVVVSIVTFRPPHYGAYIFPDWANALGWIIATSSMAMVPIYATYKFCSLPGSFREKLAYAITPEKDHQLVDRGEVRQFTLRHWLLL

By Ki is commonly meant the dissociation constant of the complex between target and ligand, obtained from inhibition or displacement. As for `CC(O)CN1CCC2(CCN(CC[S+]([O-])C(c3ccc(F)cc3)c3ccc(F)cc3)CC2)C1` (centres unmarked) [RDS04-014], on σ1R, the σ1/DAT stood at 0.14 and the σ1/SERT came out at 0.11. The Ki at DAT (setting [2]) is 0.449 ± 0.12 µM. Further, the SERT/DAT at DAT came to 1.37. For the same compound, on SERT, the Ki is 0.617 ± 0.0548 µM.
For the compound `CC(C)(C)CN1CCC(NCC[S+]([O-])C(c2ccc(F)cc2)c2ccc(F)cc2)CC1` (centres unmarked) [JBG02-074, N-(2-((Bis(4-fluorophenyl)methyl)sulfinyl)ethyl)-1-neopentylpiperidin-4-amine], the σ1/DAT at σ1R came out at 1.26. The Ki at DAT (setting [2]) is 0.431 ± 0.0282 µM; at SERT, 6.99 ± 0.229 µM. For the same compound, the SERT/DAT at DAT is listed as 16.22.
Take `O=C(c1cc2ccccc2o1)N1CCC(NCCSC(c2ccc(F)cc2)c2ccc(F)cc2)CC1` [JBG02-015, Benzofuran-2-yl(4-((2-((bis(4-fluorophenyl)methyl)thio)ethyl)amino)piperidin-1-yl)methanone]: the Ki came to 0.115 ± 0.0195 µM on DAT (setting [2]) and 0.0964 ± 0.0237 µM on SERT.
In the case of `Cl.Cl.Fc1ccc(C(SCCNC2CCN(Cc3ccc(C(F)(F)F)cc3)CC2)c2ccc(F)cc2)cc1` [JBG01-083, N-(2-((Bis(4-fluorophenyl)methyl)thio)ethyl)-1-(4-(trifluoromethyl)benzyl)piperidin-4-amine], the inhibitory constant (Ki) at DAT (setting [2]) turned out to be 0.19 ± 0.0479 µM; on SERT, 1.62 ± 0.175 µM. Moreover, on DAT, the SERT/DAT is recorded as 8.53.
Taken in the same sequence, the figures for `Cl.Cl.Fc1ccc(C(SCCNC2CCN(Cc3cc4ccccc4[nH]3)CC2)c2ccc(F)cc2)cc1` [JBG02-014, 1-((1H-Indol-2-yl)methyl)-N-(2-((bis(4-fluorophenyl)methyl)thio)ethyl)piperidin-4-amine] were 0.179 ± 0.022 µM, 1.72 ± 0.516 µM and 9.61.
As for `Cl.Cl.Fc1ccc(C(SCCNC2CCN(Cc3ccc(Cl)cc3)CC2)c2ccc(F)cc2)cc1` [JBG01-078, N-(2-((Bis(4-fluorophenyl)methyl)thio)ethyl)-1-(4 chlorobenzyl)piperidin-4-amine], at σ1R, the σ1/DAT amounted to 1.15 and the σ1/SERT is reported as 0.13. In addition, the Ki at DAT (setting [2]) came out at 0.0396 ± 0.00927 µM. The SERT/DAT on DAT was determined as 8.99. Also, on SERT, the inhibition constant Ki turned out to be 0.356 ± 0.000862 µM.
With `Fc1ccc(C(SCCNC2CCN(CC3CC3)CC2)c2ccc(F)cc2)cc1` [JBG02-080, N-(2-((bis(4-fluorophenyl)methyl)thio)ethyl)-1-(cyclopropylmethyl)piperidin-4-amine], on σ1R, the σ1/DAT was found to be 0.66. For the same compound, the inhibition constant Ki turned out to be 0.407 ± 0.065 µM on DAT (setting [2]) and 1.6 ± 0.164 µM at SERT. The SERT/DAT on DAT was 3.93.
For `Cl.Cl.Fc1ccc(C(SCCNC2CCN(CCc3ccccc3)CC2)c2ccc(F)cc2)cc1` [JBG01-084, N-(2-((Bis(4-fluorophenyl)methyl)thio)ethyl)-1-phenethylpiperidin-4-amine], on σ1R, the σ1/DAT was found to be 1.83 and the σ1/SERT worked out at 0.40. Moreover, the Ki at DAT (setting [2]) was 0.0315 ± 0.00532 µM. In addition, on DAT, the SERT/DAT is on record as 4.57. Besides, at SERT, the Ki amounted to 0.144 ± 0.017 µM.
On to `Fc1ccc(C(SCCN2CCC(NCc3ccccc3)CC2)c2ccc(F)cc2)cc1` [JBG01-057, N-Benzyl-1-(2-((bis(4-fluorophenyl)methyl)thio)ethyl)piperidin-4-amine], for which, at σ1R, the σ1/DAT is given as 0.56 and the σ1/SERT was determined as 0.19. Also, on DAT (setting [2]), the Ki turned out to be 0.108 ± 0.0175 µM. Further, the SERT/DAT at DAT was 3.05. Also, the Ki at SERT was determined as 0.329 ± 0.0343 µM.
In general, Kd refers to a measure of binding affinity in units of concentration. A lower Kd goes with higher affinity. In turn, `Cl.O=C(c1ccccc1)N1CCC(NCCSC(c2ccc(F)cc2)c2ccc(F)cc2)CC1` [JBG02-009, (4-((2-((Bis(4-fluorophenyl)methyl)thio)ethyl)amino)piperidin-1-yl)(phenyl)methanone] showed a Kd on σ1R of 0.00204 ± 0.000298 µM. In addition, the “Phase I in Liver Microsomes, Negative Control” value in data set [1] (0 min) and in data set [1] (60 min) was 100% throughout. Moreover, the figures for the “Phase I in Liver Microsomes, Rat” value in data set [1] (0 min), in data set [1] (30 min) and in data set [1] (60 min) were 100%, 20% and 7%, respectively. The “stability to Phase I metabolism (in words)” value in data set [1] (rat liver microsomes fortified with NADPH) is “susceptibility”.
As for `Cl.Cl.O.O=C(c1cc2ccccc2[nH]1)N1CCC(NCCSC(c2ccc(F)cc2)c2ccc(F)cc2)CC1` [JBG02-029, (4-((2-((Bis(4-fluorophenyl)methyl)thio)ethyl)amino)piperidin-1-yl)(1H-indol-2-yl)methanone], at DAT, the Ki was 0.18 ± 0.0398 µM and the SERT/DAT is on record as 5.21. Moreover, on SERT, the Ki stood at 0.938 ± 0.0765 µM.
As to `CC(C)(C)CN1CCC(NCCSC(c2ccc(F)cc2)c2ccc(F)cc2)CC1` [JBG02-066, N-(2-((Bis(4-fluorophenyl)methyl)thio)ethyl)-1-neopentylpiperidin-4-amine], at σ1R, the σ1/DAT stood at 1.13. In addition, the Ki on DAT (setting [2]) was 0.279 ± 0.0394 µM; on SERT it was 0.947 ± 0.101 µM. Besides, on DAT, the SERT/DAT was determined as 3.39.
Consider `Cl.Cl.OC(Cc1ccccc1)CN1CCC(NCCSC(c2ccc(F)cc2)c2ccc(F)cc2)CC1` (centres unmarked) [JBG01-058, 1-(4-((2-((Bis(4-fluorophenyl)methyl)thio)ethyl)amino)piperidin-1-yl)-3-phenylpropan-2-ol], for which the entries for the “Phase I in Liver Microsomes, Negative Control” value in data set [1] (0 min) and in data set [1] (60 min) were 100% and 96%, respectively. Besides, the “Phase I in Liver Microsomes, Rat” value in data set [1] (0 min) stood at 100%; in data set [1] (30 min), 98%; in data set [1] (60 min), 74%. Also, the inhibition constant Ki at SERT was determined as 0.128 ± 0.0332 µM.
With `Cl.Cl.Fc1ccc(C(SCCN2CCC(NCc3ccc(C(F)(F)F)cc3)CC2)c2ccc(F)cc2)cc1` [JBG01-087, 1-(2-((Bis(4-fluorophenyl)methyl)thio)ethyl)-N-(4-(trifluoromethyl)benzyl)piperidin-4-amine], the inhibitory constant (Ki) came to 0.128 ± 0.0319 µM on DAT (setting [2]) and 1.04 ± 0.19 µM on SERT. Moreover, at DAT, the SERT/DAT was 8.13.
In the case of `Cl.O=C(c1ccccc1)N1CCC(NCC[S+]([O-])C(c2ccc(F)cc2)c2ccc(F)cc2)CC1` (centres unmarked) [JBG02-055, (4-((2-((Bis(4-fluorophenyl)methyl)sulfinyl)ethyl)amino)piperidin-1-yl)(phenyl)methanone], the Ki at DAT (setting [2]) is 0.0791 ± 0.0206 µM; at SERT, 7.73 ± 0.732 µM. In addition, at DAT, the SERT/DAT is given as 97.72.
For `CC(C)(C)C(=O)N1CCC(NCCSC(c2ccc(F)cc2)c2ccc(F)cc2)CC1.Cl` [JBG02-064, 1-(4-((2-((Bis(4-fluorophenyl)methyl)thio)ethyl)amino)piperidin-1-yl)-2,2-dimethylpropan-1-one], the inhibition constant Ki on DAT (setting [2]) was determined as 0.352 ± 0.137 µM; on SERT, 1 ± 0.228 µM. Further, the SERT/DAT on DAT is recorded as 2.84.
